Legend:
[1] = biological target: p38 kinase enzyme (Homo sapiens, UniProt Q16539); assay: Inhibition of p38 kinase; assay type: biochemical; conditions: 33P-ATP, EGF peptide 661-681, 30° C.
Description: Standard Solution Preparations
The kinase buffer solution is prepared by combining 2.5 mL 1 M Tris-HCl (pH 7.5), 0.1 ml 1 M dithiothreitol, 1.0 mL 1 M magnesium chloride, and 300 μL 1% Triton X-100 and diluting to 100 mL with water. 84 mL of this kinase buffer solution is combined with 16 mL DMSO to prepare the 16% DMSO solution.
The 200 μM ATP solution is prepared by adding 102.6 μL 10 mM aqueous ATP, 25 μL ^33P-ATP, and 163.5 μL of 4 mM aqueous Epidermal Growth Factor Peptide 661-681 (Biomol, Catalog #P-121) in 5 mL kinase buffer solution.
The p38 kinase enzyme solution is prepared by dissolving 9.5 μL concentrated enzyme solution (250 ng p38 enzyme/μL kinase buffer solution) in 1536 μL kinase buffer solution.
An 80 μM solution of each test compound and control compound are prepared by dissolving 2 μL of a 10 mM stock solution of the respective compounds in dimethylsulfoxide in 248 μL of the 16% DMSO solution in a Costar 96-well microtiter plate. The plate is placed onto the Tecan Genesis automated liquid handler for 1:3 serial dilutions.
10 μL of serially diluted compound is placed with a Beckmnan Multimek 96-well automated liquid handler to the assay plate. […] of 200 μM ATP solution is added with a Titertek Multidrop 8-channel liquid handler. 10 μL of p38 kinase enzyme solution is transferred to the assay plate using the Multimek. The mixture is allowed to react for […] and then the reaction is stopped by adding 60 μL of freshly prepared 5% glacial AcOH with Multidrop. 80 μL of this solution is transferred to an “MAPH” plate using the Multimek. The plates are allowed to set for 30 min at RT and then washed/aspirated on the Titertek MAP extractor with freshly prepared 0.5% glacial AcOH (1×300 μL, 2×200 μL). The wells are blotted and 100 μL MicroScint-20 scintillation fluid (Packard Bioscience) is added with the Multidrop. The plates are allowed to sit for 30 min and counted on a PE/Wallac Microbeta Trilux scintillation counter for ^33P-isotope.
All exemplified compounds were initially tested at 10 concentrations (20 μM−1 nM using 1:3 serial dilutions). […] IC50 values were calculated (IDBS ActivityBase software) for each compound using non-linear regression.

[2] = test system: TNF-α production in mouse peritoneal macrophages; assay: Inhibition of TNF-α in vitro (mouse peritoneal macrophages, LPS/interferon-γ, Luminex); assay type: cell-based; conditions: Mus musculus, Peritoneal macrophage; suppression of TNF-α; macrophages treated with 50 ng/mL LPS and 10 U/mL interferon-γ for 18 h
Description: Mouse Peritoneal Macrophages
1 mL thioglycolate broth (5.0 g yeast extract, 15.0 g casitone or trypticase, 5.0 g dextrose, 2.5 g sodium chloride, 0.75 g L-cystine, 0.5 g sodium thioglycolate, 1.0 mg resazurin, and 0.75 g agar in 1.0 L distilled water) is injected into the peritoneal cavity of Balb/C female mice. At day 4 or 5 post-injection the mice are sacrificed and then injected i.p. with 4 mL RPMI-1640 medium (BioWhittaker) and the peritoneal macrophages are withdrawn by syringe.
Mouse peritoneal microphages are counted with a hemocytometer and adjusted to 5×10^5 cells/well in 96-well plates in RPMI-1640 medium with 10% fetal bovine serum. 200 μL/well is plated in 96-well plates and the cells allowed to settle and adhere to the bottom of the well for at least 3 h. The test compound or standard p38 kinase inhibitor is pre-treated using a series of 8 concentrations for 1 h at 37° C. (20 μL/well). The cells are treated with a mixture of 50 ng/mL lipopolysaccharide (LPS) and 10 U/mL interferon-γ for 18 h at 37° C. (20 μL/well). The conditioned media is harvested and assayed for TNF-α production using the Luminex procedure.
TNF-α/Luminex Detection Assay (Bio-Rad Bio-Plex Kit—Catalog #171-G12221)
The lyophilized premixed TNF-α standard (1 standard tube/two 96-well plates) is reconstituted with 50 μL sterile water (500,000 pg/mL). The samples are vortexed for 5 seconds, incubated on ice for 30 min, and vortexed for 5 seconds before use. A set of twelve 1.5 mL tubes are labeled with #1-thru #12 and then the amounts of cell media shown below added to the appropriate tubes (standard concentrations are as follows: 50,000; 25,000; 12,500; 6,250; 3,125; 1,562.5; 781.3; 390.6; 195.3; 97.7; 48.8; and 24.4 pg/mL). The premixed anti-cytokine conjugated beads are vortexed (25×) vigorously for 30 seconds. The anti-cytokine conjugated beads are diluted to a 1× concentration using 1× Bio-Plex Assay Buffer. For every plate, 240 μL of the pre-mixed beads is added to 5760 μL of Bio-Plex Assay Buffer. A Millipore 96-well filter plate is blocked with 100 μL/well of blocking buffer. The blocking buffer is filtered through using a Millipore filtration system and then toweled dry. 2 washes are performed on the filter plate with 100 μL/well of Bio-Plex Assay Buffer and toweled dry. The 1× anti-cytokine conjugated beads are vortexed for 15 seconds and added 50 μL to each well. This is filtered through and toweled dry. 2 washes are performed on plates with 100 μl/well of Bio-Plex Wash Buffer. Again, it is filtered through and toweled dry. 50 μL of sample or standard is added to each sample well. This is incubated for 60 seconds at RT on a shaker protected from light at setting 6 and then for 30 min at setting 3 and then placed in the refrigerator overnight. 3 washes are performed with Bio-Plex Wash Buffer. Filter through and toweled dry. The cytokine detection antibody is prepared (˜10 min prior to use) for every plate and 60 μL of the premixed cytokine detection antibody stock is added to 5940 μL of Bio-Plex Detection Antibody Diluent. 50 μL of cytokine detection antibody is added and incubated for 60 seconds at RT on a shaker protected from light at setting 6 and then for 30 min at setting 3.3 washes are performed with the Bio-Plex Wash Buffer. This is filtered through and toweled dry. Strept-PE (˜10 minutes prior to use) is prepared for every plate and 60 μL to 5940 μL of Bio-Plex Assay Buffer added. 50 μL of Streptavidin-PE is added to each well and incubated for 60 seconds at RT on a shaker protected from light at setting 6 and then for 10 min at setting 3. 3 washes are performed with Bio-Plex Wash-Buffer. This is filtered through. The beads are re-suspended in 100 μL/well of Bio-Plex Assay Buffer. Standards and samples are read on a Luminex machine. […]

Sequence of p38 kinase enzyme (Q16539 whole entry): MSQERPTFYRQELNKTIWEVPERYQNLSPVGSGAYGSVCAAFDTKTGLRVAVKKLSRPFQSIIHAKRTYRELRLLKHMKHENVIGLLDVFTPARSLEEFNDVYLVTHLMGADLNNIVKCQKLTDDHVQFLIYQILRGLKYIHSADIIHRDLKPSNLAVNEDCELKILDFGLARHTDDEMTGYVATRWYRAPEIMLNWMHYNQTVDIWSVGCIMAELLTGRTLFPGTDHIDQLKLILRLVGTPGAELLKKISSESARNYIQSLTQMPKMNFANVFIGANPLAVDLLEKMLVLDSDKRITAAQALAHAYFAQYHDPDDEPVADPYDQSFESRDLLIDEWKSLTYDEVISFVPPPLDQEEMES

C[C@@H](n1c(N)nc2ccc(-c3[nH]c(C(C)(C)C)nc3-c3ccc(F)cc3)nc21)C(C)(C)C [compound 12, R-5-[2-tert-Butyl-5-(4-fluorophenyl)-3H-imidazol-4-yl]-3-(1,2,2-trimethylpropyl)-3H-imidazo[4,5-b]pyridin-2-ylamine methanesulfonate]
IC50 [1]: 3.6 nM

CC(C)(C)Cn1c(N)nc2ccc(-c3[nH]c(-c4c(F)cccc4Cl)nc3-c3ccccc3)nc21 [compound 18, 5-[2-(2-Chloro-6-fluorophenyl)-5-phenyl-3H-imidazol-4-yl]-3-(2,2-dimethylpropyl)-3H-imidazo[4,5-b]pyridin-2-ylamine methanesulfonate]
IC50 [2]: < 9.1 nM
IC50 [1]: 3.6 nM

Nc1nc2ccc(-c3[nH]c(-c4c(F)cccc4F)nc3-c3ccccc3)nc2n1CC1CC1 [compound 19, 3-Cyclopropylmethyl-5-[2-(2,6-difluorophenyl)-5-phenyl-3H-imidazol-4-yl]-3H-imidazo[4,5-b]pyridin-2-ylamine methanesulfonate]
IC50 [2]: < 9.1 nM
IC50 [1]: 3.2 nM

CC(C)(C)Cn1c(N)nc2ccc(-c3[nH]c(C(C)(C)C)nc3-c3ccc(F)cc3F)nc21 [EXAMPLE 11, 5-[2-tert-Butyl-5-(2,4-difluorophenyl)-3H-imidazol-4-yl]-3-(2,2-dimethylpropyl)-3H-imidazo[4,5-b]pyridin-2-ylamine methanesulfonate]
IC50 [2]: 2.4 nM

CC(C)(C)Cn1c(N)nc2ccc(-c3[nH]c(-c4c(F)cccc4C(F)(F)F)nc3-c3ccccc3)nc21 [EXAMPLE 6, 3-(2,2-Dimethylpropyl)-5-[2-(2-fluoro-6-trifluoromethylphenyl)-5-phenyl-3H-imidazol-4-yl]-3H-imidazo[4,5-b]pyridin-2-ylamine methanesulfonate]
IC50 [2]: < 9.1 nM
IC50 [1]: 7.2 nM

CC(C)(C)Cn1c(N)nc2ccc(-c3[nH]c(C(C)(C)C)nc3-c3ccc(F)cc3)nc21 [EXAMPLE 9, 5-[2-tert-Butyl-5-(4-fluorophenyl)-3H-imidazol-4-yl]-3-(2,2-dimethylpropyl)-3H-imidazo[4,5-b]pyridin-2-ylamine methanesulfonate]
IC50 [2]: 1.2 nM

C[C@@H](n1c(N)nc2ccc(-c3[nH]c(-c4c(F)cccc4F)nc3-c3ccc(F)cc3)nc21)C(C)(C)C [compound 13, R-5-[2-(2,6-Difluorophenyl)-5-(4-fluorophenyl)-3H-imidazol-4-yl]-3-(1,2,2-trimethylpropyl)-3H-imidazo[4,5-b]pyridin-2-ylamine methanesulfonate]
IC50 [2]: < 9.1 nM
IC50 [1]: 3.3 nM

Reference: US7582652B2, “Kinase inhibitors” (Eli Lilly and Company, priority 2004, dated 2009)
